The values that follow come from ChEMBL document CHEMBL4699637, “Glycosylated Phenols and an Unprecedented Diacid from the Saudi Plant Cissus rotundifolia” (J Nat Prod, 2020).

By EC50 is commonly meant the concentration that produces a half-maximal response.

One assay deals with Huh-7. The assay is described as follows: Activation of glucose transporter in human Huh-7 cells assessed as increase in glucose uptake at 800 ug/ml preincubated for 30 mins followed by […] addition and measured after 45 mins by fluorescence assay. It is filed as cell-based. Particulars: dose 800.0 µg/ml, time 75.0 min.
Assay [1] is described as follows: Activation of glucose transporter in human Huh-7 cells assessed as increase in glucose uptake preincubated for 30 mins followed by 2-NDBG addition and measured after 45 mins by fluorescence assay.

Calls of active or inactive are those of the source. The calls are words filed in the database; no cut-off is given here.

With `O=C1OC[C@H]2O[C@@](CO)(O[C@H]3O[C@H](COC(=O)[C@H]4[C@H]1[C@@H](c1ccc(O)cc1)[C@@H]4c1ccc(O)cc1)[C@@H](O)[C@H](O)[C@H]3O)[C@@H](O)[C@@H]2O`, the result in the assay with Huh-7 was inactive.
On the same count and under the same terms, the result for `O=c1cc(-c2ccc(O)cc2)oc2cc(O)c([C@@H]3O[C@H](CO)[C@@H](O)[C@H](O)[C@H]3O[C@@H]3O[C@H](CO)[C@@H](O)[C@H](O)[C@H]3O)c(O)c12` reads “inactive”; that for `O=c1cc(-c2ccc(O)c(O)c2)oc2c([C@@H]3O[C@H](CO)[C@@H](O)[C@H](O)[C@H]3O[C@@H]3O[C@H](CO)[C@@H](O)[C@@H]3O)c(O)cc(O)c12`, “inactive”; that for `O=C(O)/C=C\c1ccc(O[C@@H]2O[C@H](CO)[C@@H](O)[C@H](O)[C@H]2O)cc1`, “inactive”.
As to `O=c1cc(-c2ccc(O)cc2)oc2c([C@@H]3O[C@H](CO)[C@@H](O)[C@H](O)[C@H]3O[C@@H]3O[C@H](CO)[C@@H](O)[C@@H]3O)c(O)cc(O)c12`, the result in the assay on Huh-7 was inactive.
Take `O=C(/C=C/c1ccc(O)cc1)O[C@@H]1O[C@H](CO)[C@@H](O)[C@H](O)[C@H]1O`: in the assay with Huh-7 (filed as activator), the fold change (FC) was found to be 2. Also, the EC50 in assay [1] turned out to be 7.7 µM.
Regarding `CC(/C=C/C(=O)O)=C\C=C\C[C@H](O[C@@H]1O[C@H](CO)[C@@H](O)[C@H](O)[C@H]1O)[C@H](C)CC(=O)O`, in the assay on Huh-7, the outcome was inactive.
